Measured values: patent US9446015B2, “Quinone based nitric oxide donating compounds for ophthalmic use” (NICOX SCIENCE IRELAND, priority 2012, dated 2016)

What was measured:
[1] = system: rat L-NAME-induced hypertension; assay: Systolic blood pressure in rat L-NAME-induced hypertension, single oral dose; assay type: in vivo; details: Comp. (6) 100 mg/kg oral; 3 hours
Protocol: To assess the in vivo NO-dependent activity, Compound (6) was evaluated for systolic blood pressure (SBP) reduction efficacy in a rat model of NO-deprivation induced by L-NAME and compared with 5-ISMN.
Fasted male SD rats (250-300 g, n=3-5 per group), obtained from Harlan Italy (Correzzana, Milan, Italy) were orally treated with tested compounds or vehicle (DMSO:Methocel 1% 2/98 v/v) in a total volume of 4 ml/kg by gavage. At each time point (1, 3, 6 and 24 h) animals were deeply anesthetized with Zoletil® 100 (3 mg/kg), given intramuscularly. Thereafter, a pressure catheter (Samba Sensors, Harvard Apparatus, UK) was introduced into the common carotid artery for central blood pressure measurement. Pressure transducer was connected to a personal computer, in order to allow real time monitor of the pressure tracing. After 10 minutes of basal recording, L-NAME (50 mg/kg) was administered intraperitoneally and the effect on SBP monitored. When the SBP stabilized (5 minutes without variations) the recording was stopped. To further confirm that functional activity was NO-dependent, at each time point blood ^15N-nitrite levels were measured following the procedure described in Example 12.

[2] = system: lipidic peroxidation of membrane lipids in rat hepatocytes (hepatic microsomal membranes); assay: In vitro antioxidant activity (TBARS test); assay type: biochemical; details: Method A (ADP-FeCl3 and NADPH); inhibition of TBARS production after 30 min; read-out: Antioxidant activity IC50 μM (CL 95%)
Protocol: The antioxidant properties of compounds (6) (disclosed in example 1) and compound (23) (disclosed in example 19) and reference antioxidant compounds were assessed after NADPH-induced lipidic peroxidation of membrane lipids in rat hepatocytes using the detection of 2-thiobarbituric acid reactive substances (TBARS) by visible spectroscopy.
Hepatic microsomal membranes from male Wistar rats (200-250 g) were prepared by differential centrifugation (8000 g, 20 min; 120000 g, 1 h) in a HEPES/sucrose buffer (10 mM, 250 mM, pH 7.4) and stored at −80° C. Incubation was performed at 37° C. in a Tris-HCl/KCl (100 mM/150 mM, pH 7.4) containing microsomal membranes (2 mg prot/mL), sodium ascorbate (100 μM), and DMSO solutions of the tested compounds. Lipid peroxidation was initiated by adding ADP-FeCl3 and NADPH (Method A) or 2.5 μM FeSO4 (Method B) (as described by Boschi D. et al., J. Med. Chem. 2006, 49:2886-2897). Aliquots were taken from the incubation mixture at 5, 15, and 30 min and treated with trichloroacetic acid (TCA) 10% w/v. Lipid peroxidation was assessed by spectrophotometric (543 nm) determination of the TBARS consisting mainly of malondialdehyde (MDA). TBARS concentrations (expressed in nmol/mg protein) were obtained by interpolation with a MDA standard curve. The antioxidant activity of tested compounds was evaluated as the percent inhibition of TBARS production with respect to control samples, using the values obtained after 30 min of incubation. IC50 values were calculated by nonlinear regression analysis.

In the case of `COC1=C(OC)C(=O)C(CCCCCCCCCCO[N+](=O)[O-])=C(C)C1=O` [Compound (6), 10-(4,5-dimethoxy-2-methyl-3,6-dioxocyclohexa-1,4-dienyl)decyl nitrate], the “Delta vs basal (mmHg), systolic blood pressure” value [1] is reported as 14 ± 3.8 mmHg and the IC50 [2] is reported as 2 µM.
